Measured values reported in patent publication US10981894B2, “Melanocortin subtype-2 receptor (MC2R) antagonists and uses thereof” (Crinetics Pharmaceuticals, Inc., priority 2018, dated 2021).

Molecular target: hMC2 receptor (Homo sapiens, UniProt Q01718)
Assay: hMC2 membrane binding assay ([125I]ACTH (1-39) Tyr23, SPA)
Set-up: scale not given here
Conditions: crude hMC2R membranes from CRE-bla-CHO-K1 cells expressing hMC2 receptor and hMRAP; [125I]ACTH (1-39) Tyr23 0.2 nM; 1.5 hours at room temperature; read-out: MC2R binding potency
Summary of the method: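 CRE-bla-CHO-K1 membranes co-expressing hMC2 receptor and hMRAP, preincubated with WGA PVT SPA beads in pH 7.4 HEPES/MgCl2/CaCl2/0.2% BSA buffer. Compounds (typically 0–10,000 nM final) compete with 0.2 nM [125I]ACTH(1-39) Tyr23 for 1.5 h at room temperature. SPA counts give Ki by non-linear regression.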

Chain of hMC2 receptor (Q01718 whole entry): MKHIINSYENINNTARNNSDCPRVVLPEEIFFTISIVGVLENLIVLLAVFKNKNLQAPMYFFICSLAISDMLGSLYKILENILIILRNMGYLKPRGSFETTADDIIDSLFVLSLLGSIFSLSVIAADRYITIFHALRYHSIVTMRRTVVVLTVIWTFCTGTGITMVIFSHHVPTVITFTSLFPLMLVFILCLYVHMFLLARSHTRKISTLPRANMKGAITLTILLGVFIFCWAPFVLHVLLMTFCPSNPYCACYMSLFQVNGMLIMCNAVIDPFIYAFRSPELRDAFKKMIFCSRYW
Chain of hMC2 receptor (Q8TCY5 whole entry partner): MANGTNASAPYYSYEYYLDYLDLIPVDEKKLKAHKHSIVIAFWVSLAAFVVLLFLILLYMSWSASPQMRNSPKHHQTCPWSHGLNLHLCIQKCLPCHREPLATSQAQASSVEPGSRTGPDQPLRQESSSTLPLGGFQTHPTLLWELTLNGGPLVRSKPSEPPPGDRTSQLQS

Structure (SMILES) | Ki
CCOc1ncccc1-c1ccc(N2CCN(C(=O)c3ccc(F)cc3Cl)C[C@H]2CC)c(C(=O)NCCNC)c1F [Compound 1-96, 6-[(2R)-4-(2-chloro-4-fluorobenzoyl)-2-ethylpiperazin-1-yl]-3-(2-ethoxypyridin-3-yl)-2-fluoro-N-[2-(methylamino)ethyl]benzamide] | < 10 nM
CCOc1ncccc1-c1ccc(N2CCN(C(=O)c3ccc(Cl)cc3C(F)(F)F)C[C@H]2CC)c(C(=O)NC[C@@H]2CCN2)c1 [Compound 1-97, N-{[(2S)-azetidin-2-yl]methyl}-2-[(2R)-4-[4-chloro-2-(trifluoromethyl)benzoyl]-2-ethylpiperazin-1-yl]-5-(2-ethoxypyridin-3-yl)benzamide] | < 10 nM
CCOc1ncccc1-c1ccc(N2CCN(C(=O)c3ccc(Cl)cc3C(F)(F)F)C[C@H]2CC)c(C(=O)NC[C@@H]2CCCN2)c1 [Compound 1-98, 2-[(2R)-4-[4-chloro-2-(trifluoromethyl)benzoyl]-2-ethylpiperazin-1-yl]-5-(2-ethoxypyridin-3-yl)-N-{[(2S)-pyrrolidin-2-yl]methyl}benzamide] | < 10 nM
CCOc1ncccc1-c1ccc(N2CCN(C(=O)c3ccc(Cl)cc3C(F)(F)F)C[C@H]2CC)c(C(=O)N[C@@H]2CCCNC2)c1 [Compound 1-99, 2-[(2R)-4-[4-chloro-2-(trifluoromethyl)benzoyl]-2-ethylpiperazin-1-yl]-5-(2-ethoxypyridin-3-yl)-N-[(3R)-piperidin-3-yl]benzamide] | < 10 nM
CCOc1ncccc1-c1ccc(N2CCN(C(=O)c3ccc(Cl)cc3C(F)(F)F)C[C@H]2CC)c(C(=O)N[C@H]2CCCNC2)c1 [Compound 1-100, 2-[(2R)-4-[4-chloro-2-(trifluoromethyl)benzoyl]-2-ethylpiperazin-1-yl]-5-(2-ethoxypyridin-3-yl)-N-[(3 S)-piperidin-3-yl]benzamide] | < 10 nM
CCOc1ncccc1-c1ccc(N2CCN(C(=O)c3ccc(F)cc3N3CC[C@H](NC)C3)C[C@H]2CC)c(C(=O)N[C@@H]2CCNC2)c1 [Compound 1-101, 5-(2-ethoxypyridin-3-yl)-2-[(2R)-2-ethyl-4-{4-fluoro-2-[(3S)-3-(methylamino)pyrrolidin-1-yl]benzoyl}piperazin-1-yl]-N-[(3R)-pyrrolidin-3-yl]benzamide] | < 10 nM
CCOc1ncccc1-c1ccc(N2CCN(C(=O)c3ccc(Cl)cc3C(F)(F)F)C[C@H]2CC)c(C(=O)NC[C@H]2CCN2)c1 [Compound 1-102, N-{[(2R)-azetidin-2-yl]methyl}-2-[(2R)-4-[4-chloro-2-(trifluoromethyl)benzoyl]-2-ethylpiperazin-1-yl]-5-(2-ethoxypyridin-3-yl)benzamide] | < 10 nM
CCOc1ncccc1-c1ccc(N2CCN(C(=O)c3ccc(C)cc3N3CCC(CN)C3)C[C@H]2CC)c(C(=O)NCCN)c1 (stereo partly drawn) [Compound 1-104, N-(2-aminoethyl)-2-[(2R)-4-{2-[3-(aminomethyl)pyrrolidin-1-yl]-4-methylbenzoyl}-2-ethylpiperazin-1-yl]-5-(2-ethoxypyridin-3-yl)benzamide] | < 10 nM
CCOc1ncccc1-c1ccc(N2CCN(C(=O)c3ccc(C(F)(F)F)cc3N(C)C)C[C@H]2CC)c(C(=O)NCCN)c1 [Compound 1-107, N-(2-aminoethyl)-2-[(2R)-4-[2-(dimethylamino)-4-(trifluoromethyl)benzoyl]-2-ethylpiperazin-1-yl]-5-(2-ethoxypyridin-3-yl)benzamide] | < 10 nM
CCOc1ncccc1-c1ccc(N2CCN(C(=O)c3ccc(Cl)cc3C(F)(F)F)C[C@H]2CC)c(C(=O)NC[C@H]2CCCN2)c1 [Compound 1-108, 2-[(2R)-4-[4-chloro-2-(trifluoromethyl)benzoyl]-2-ethylpiperazin-1-yl]-5-(2-ethoxypyridin-3-yl)-N-{[(2R)-pyrrolidin-2-yl]methyl}benzamide] | < 10 nM
CCOc1ncccc1-c1ccc(N2CCN(C(=O)c3ccc(Cl)cc3C(F)(F)F)C[C@H]2CC)c(C(=O)NC[C@@H]2CNCCO2)c1 [Compound 1-109, 2-[(2R)-4-[4-chloro-2-(trifluoromethyl)benzoyl]-2-ethylpiperazin-1-yl]-5-(2-ethoxypyridin-3-yl)-N-{[(2S)-morpholin-2-yl]methyl}benzamide] | < 10 nM
CCOc1ncccc1-c1ccc(N2CCN(C(=O)c3ccc(C)cc3Cl)C[C@H]2CC)c(C(=O)N[C@@H]2CCNC2)c1F [Compound 1-110, 6-[(2R)-4-(2-chloro-4-methylbenzoyl)-2-ethylpiperazin-1-yl]-3-(2-ethoxypyridin-3-yl)-2-fluoro-N-[(3R)-pyrrolidin-3-yl]benzamide] | < 10 nM
CCOc1ncccc1-c1ccc(N2CCN(C(=O)c3ccc(F)cc3C(F)(F)F)C[C@H]2CC)c(C(=O)N[C@@H]2CCNC2)c1F [Compound 1-111, 3-(2-ethoxypyridin-3-yl)-6-[(2R)-2-ethyl-4-[4-fluoro-2-(trifluoromethyl)benzoyl]piperazin-1-yl]-2-fluoro-N-[(3R)-pyrrolidin-3-yl]benzamide] | < 10 nM
CCOc1ncccc1-c1ccc(N2CCN(C(=O)c3ccc(Cl)cc3C(F)(F)F)C[C@H]2CC)c(C(=O)NC[C@@H]2CCN2)c1F [Compound 1-112, N-{[(2S)-azetidin-2-yl]methyl}-6-[(2R)-4-[4-chloro-2-(trifluoromethyl)benzoyl]-2-ethylpiperazin-1-yl]-3-(2-ethoxypyridin-3-yl)-2-fluorobenzamide] | < 10 nM
CCOc1ncccc1-c1ccc(N2CCN(C(=O)c3ccc(C)cc3Cl)C[C@H]2CC)c(C(=O)NCCNC)c1F [Compound 1-113, 6-[(2R)-4-(2-chloro-4-methylbenzoyl)-2-ethylpiperazin-1-yl]-3-(2-ethoxypyridin-3-yl)-2-fluoro-N-[2-(methylamino)ethyl]benzamide] | < 10 nM
CCOc1ncccc1-c1ccc(N2CCN(C(=O)c3ccc(F)cc3C(F)(F)F)C[C@H]2CC)c(C(=O)NCCNC)c1F [Compound 1-114, 3-(2-ethoxypyridin-3-yl)-6-[(2R)-2-ethyl-4-[4-fluoro-2-(trifluoromethyl)benzoyl]piperazin-1-yl]-2-fluoro-N-[2-(methylamino)ethyl]benzamide] | < 10 nM
CCOc1ncccc1-c1ccc(N2CCN(C(=O)c3ccc(Cl)cc3N3CC[C@H](N(C)C)C3)C[C@H]2CC)c(C(=O)N[C@@H]2CCNC2)c1 [Compound 1-115, 2-[(2R)-4-{4-chloro-2-[(3S)-3-(dimethylamino)pyrrolidin-1-yl]benzoyl}-2-ethylpiperazin-1-yl]-5-(2-ethoxypyridin-3-yl)-N-[(3R)-pyrrolidin-3-yl]benzamide] | < 10 nM
CCOc1ncccc1-c1ccc(N2CCN(C(=O)c3ccc(Cl)cc3C(F)(F)F)C[C@H]2CC)c(C(=O)NCCc2ncc[nH]2)c1F [Compound 1-116, 6-[(2R)-4-[4-chloro-2-(trifluoromethyl)benzoyl]-2-ethylpiperazin-1-yl]-3-(2-ethoxypyridin-3-yl)-2-fluoro-N-[2-(1H-imidazol-2-yl)ethyl]benzamide] | < 10 nM
CCOc1ncccc1-c1ccc(N2CCN(C(=O)c3ccc(Cl)cc3C#N)C[C@H]2CC)c(C(=O)NCCN)c1 [Compound 1-117, N-(2-aminoethyl)-2-[(2R)-4-(4-chloro-2-cyanobenzoyl)-2-ethylpiperazin-1-yl]-5-(2-ethoxypyridin-3-yl)benzamide] | < 10 nM
